From ChEMBL document CHEMBL1127256, “Synthesis of C2-symmetric inhibitors of the HIV-1 protease, with N,N-substituted ethylenediamide and ethylenediamine linkers” (Bioorg Med Chem Lett, 1994)
Activity calls are given as the source filed them. No cut-off for these calls is given here.

Legend:
[1] = biological target: Human immunodeficiency virus type 1 protease (Human immunodeficiency virus 1) (UniProt Q72874); experiment: Percent inhibition of HIV-1 protease against substrate TLNFPIS-AMC (test I) at a concentration of 10 e-5M
[2] = biological target: Human immunodeficiency virus type 1 protease (Human immunodeficiency virus 1) (UniProt Q72874); experiment: Percent inhibition of HIV-1 protease against substrate SQN-(pNO2)F-PIV (test II) at a concentration of 10 e-5M
[3] = biological target: Human immunodeficiency virus type 1 protease (Human immunodeficiency virus 1) (UniProt Q72874); experiment: Percent inhibition of HIV-1 protease against substrate HKARVL-(NO2)F-EAnLSNH2 (test III) at a concentration of 10 e-5M; Inactive
[4] = biological target: Human immunodeficiency virus type 1 protease (Human immunodeficiency virus 1) (UniProt Q72874); experiment: Percent inhibition of HIV-1 protease against substrate HKARVL-(NO2)F-EAnLSNH2 (test III) at a concentration of 10 e-5M
[5] = biological target: Human immunodeficiency virus type 1 protease (Human immunodeficiency virus 1) (UniProt Q72874); experiment: Percent inhibition of HIV-1 protease against substrate TLNFPIS-AMC (test I) at a concentration of 10 e-5M; Inactive
[6] = biological target: Human immunodeficiency virus type 1 protease (Human immunodeficiency virus 1) (UniProt Q72874); experiment: Percent inhibition of HIV-1 protease against substrate SQN-(pNO2)F-PIV (test II) at a concentration of 10 e-5M; Inactive
[7] = biological target: Human immunodeficiency virus type 1 protease (Human immunodeficiency virus 1, UniProt Q72874); experiment: Inhibitory concentration against HIV-1 protease

| Structure (SMILES) | inhibition [1] [%] | inhibition [2] [%] | inhibition [3] | inhibition [4] [%] | inhibition [5] | inhibition [6] | IC50 [7] [nM] |
| --- | --- | --- | --- | --- | --- | --- | --- |
| CC(C)[C@H](NC(=O)OCc1ccccc1)C(=O)N[C@@H](Cc1ccccc1)C(=O)NCCNC(=O)[C@H](Cc1ccccc1)NC(=O)[C@H](NC(=O)OCc1ccccc1)C(C)C | – | – | – | 25 | inactive | inactive | – |
| CC(C)[C@H](NC(=O)OCc1ccccc1)C(=O)N[C@H](CNCCNC[C@H](Cc1ccccc1)NC(=O)[C@H](NC(=O)OCc1ccccc1)C(C)C)Cc1ccccc1 | 3 | 3 | inactive | – | – | – | – |
| CC(C)[C@H](NC(=O)OCc1ccccc1)C(=O)N[C@@H](Cc1ccccc1)[C@@H](O)[C@H](O)[C@H](Cc1ccccc1)NC(=O)[C@H](NC(=O)OCc1ccccc1)C(C)C | – | – | – | – | – | – | < 1 |
| CC(C)[C@H](NC(=O)OCc1ccccc1)C(=O)N[C@@H](Cc1ccccc1)C(=O)N(C)CCN(C)C(=O)[C@H](Cc1ccccc1)NC(=O)[C@H](NC(=O)OCc1ccccc1)C(C)C | – | – | – | 16 | inactive | inactive | – |

Second part, led by results:

| inhibition [1] [%] | inhibition [2] [%] | inhibition [3] | inhibition [4] [%] | inhibition [5] | inhibition [6] | Structure (SMILES) | IC50 [7] [nM] |
| --- | --- | --- | --- | --- | --- | --- | --- |
| 3 | 3 | inactive | – | – | – | CC(C)[C@H](NC(=O)OCc1ccccc1)C(=O)N[C@@H](Cc1ccccc1)CN(C)CCN(C)C[C@H](Cc1ccccc1)NC(=O)[C@H](NC(=O)OCc1ccccc1)C(C)C | – |
| 36 | 53 | – | 33 | – | – | CC(C)[C@H](NC(=O)OCc1ccccc1)C(=O)N[C@@H](Cc1ccccc1)CN(CCN(CC(=O)O)C[C@H](Cc1ccccc1)NC(=O)[C@H](NC(=O)OCc1ccccc1)C(C)C)CC(=O)O | – |
| 3 | 3 | inactive | – | – | – | CC(C)[C@H](NC(=O)OCc1ccccc1)C(=O)N[C@@H](Cc1ccccc1)CN(CCN(C[C@H](Cc1ccccc1)NC(=O)[C@H](NC(=O)OCc1ccccc1)C(C)C)C(=O)OC(C)(C)C)C(=O)OC(C)(C)C | – |
| 8 | 30 | – | 9 | – | – | CC(C)[C@H](NC(=O)OCc1ccccc1)C(=O)N[C@@H](Cc1ccccc1)CN(CCO)CCN(CCO)C[C@H](Cc1ccccc1)NC(=O)[C@H](NC(=O)OCc1ccccc1)C(C)C | – |
